Assay [1] concerns Rab10 pThr73. Kind of assay: Rab10 Thr73 dephosphorylation (immunoblot) in WT MEFs. As to conditions: Mus musculus, read-out: pRab10 inhibited in WT MEFs. Format: cell-based, mouse. Here is the method: Western blot degradation assays for the LRRK2 protacs were performed with WT and PD-associated LRRK2 [G2019S] mouse embryonic fibroblasts (MEFs). The second-generation PROTACs were tested in parallel with the first generation PROTACs SD75, SD82, and SD100. The compounds were tested at 33 nM or […] concentrations for 4 hours or 24 hours, running two biological replicates per condition and achieving quantifications representative of both replicates. Analysis by quantitative immunoblotting was performed with readouts of the total LRRK2 (antibody recognizes epitope in C-terminus of protein), Rab10 pThr73 (physiological substrate) and LRRK2 pSer935 (biomarker phosphorylation site).
(§1) Primary MEFs were generated as described in a previous study (Wiggin et al., Mol. Cell Biol. 2002 April; 22(8):2871-81.). Briefly, the uterine horn was collected from adult female mice at day E12.5 and transferred to a 10 cm tissue culture dish containing cold PBS. Two forceps were used to tear the yolk sacs to isolate each embryo. Forceps were cleaned thoroughly with 70% ethanol between each embryo isolation. The embryos were culled, and a tissue piece was collected in a PCR tube for genotyping. The red tissue of the embryo, which grows to become the heart and liver, was removed. The remainder of the embryo was minced with a scalpel blade and incubated with 7.5 ml trypsin-EDTA solution for 10 minutes in a 37° C. tissue culture CO2 incubator. The dish was removed from the incubator and checked under a light microscope for single cells. 7.5 ml complete media was added to the trypsinised cells, and the cell suspension was transferred to a 15 ml Falcon tube, centrifuged at 1200 rpm for 5 minutes at room temperature. The trypsin was aspirated, the cell pellet was resuspended in 5 ml fresh complete media, and the cell suspension was plated in a 60 mm tissue culture dish and incubated in a 37° C., 5% CO2 tissue culture incubator. The MEFs at this stage were considered as passage 0 and were passaged and expanded for experimental use once the genotype was confirmed by allelic sequencing and immunoblotting. MEFs were cultured in Dulbecco's modified Eagle medium (DMEM) containing 10% (v/v) fetal bovine serum (FBS), 2 mM L-glutamine, 100 U/ml penicillin, and 100 μg/ml streptomycin supplemented with 1× non-essential amino acids and 1 mM sodium pyruvate.
Culturing and passaging of adherent cell lines were carried out using aseptic technique in CL1 or CL2 (for PBMC isolation) biological safety cabinets. All cells were incubated in a 37° C. incubator with 5% CO2. Cell lines were regularly tested for mycoplasma contamination. For western blot assay, the cells were seeded in 6-well plates. After treating with testing compounds at indicated concentrations and time period, the media was removed and the cells were washed with PBS and lysed in 100 μl ice-cold complete lysis buffer containing 50 mM Tris-HCl pH 7.4, 1 mM EGTA, 10 mM 2-glycerophosphate, 50 mM sodium fluoride, 5 mM sodium pyrophosphate, 270 mM sucrose, supplemented with 1 μg/ml microcystin-LR, 1 mM sodium orthovanadate, complete EDTA-free protease inhibitor cocktail (Roche) and 1% (v/v) Triton X-100. The cells were immediately placed on ice and were scraped and collected into 1.5 ml Eppendorf tubes. Cell lysates were incubated on ice for 10 minutes prior to centrifugation at 15,000 g at 4° C. for 15 minutes. The cell pellet was discarded, and supernatant was collected for analysis by quantitative immunoblotting. For long term storage, the supernatant was flash frozen and stored at −80° C. Protein concentrations of cell lysates were determined using the Bradford assay.
Cell lysates containing a quarter of a volume of 4× NuPAGE LDS sample buffer (NP0007) supplemented with 5% β-mercaptoethanol, were heated at 95° C. for 5 minutes. […]
(In western blotting, separated proteins are transferred to a membrane and probed.)

The test system of assay [2] is Rab10 pThr73. Kind of assay: Rab10 Thr73 dephosphorylation (immunoblot) in LRRK2^G2019S MEFs. Format: cell-based, mouse. The note with it: Mus musculus, read-out: pRab10 inhibited in LRRK2^G2019S MEFs.
Assay [3] has as its system Rab10 pThr73. Described as above. It counts as cell-based. As to conditions: Mus musculus, read-out: pRab10 inhibited in LRRK2^G2019S MEFs. Here is the method: The second-generation PROTACs were tested in parallel with the first generation PROTACs SD75, SD82, and SD100. The compounds were tested at 33 nM or […] concentrations for 4 hours or 24 hours, running two biological replicates per condition and achieving quantifications representative of both replicates. Analysis by quantitative immunoblotting was performed with readouts of the total LRRK2 (antibody recognizes epitope in C-terminus of protein), Rab10 pThr73 (physiological substrate) and LRRK2 pSer935 (biomarker phosphorylation site).
as §1
Culturing and passaging of adherent cell lines were carried out using aseptic technique in CL1 or CL2 (for PBMC isolation) biological safety cabinets. All cells were incubated in a 37° C. incubator with 5% CO2. Cell lines were regularly tested for mycoplasma contamination. For western blot assay, the cells were seeded in 6-well plates. […] The cells were immediately placed on ice and were scraped and collected into 1.5 ml Eppendorf tubes. Cell lysates were incubated on ice for 10 minutes prior to centrifugation at 15,000 g at 4° C. for 15 minutes. The cell pellet was discarded, and supernatant was collected for analysis by quantitative immunoblotting. For long term storage, the supernatant was flash frozen and stored at −80° C. Protein concentrations of cell lysates were determined using the Bradford assay.
Cell lysates containing a quarter of a volume of 4× NuPAGE LDS sample buffer (NP0007) supplemented with 5% β-mercaptoethanol, were heated at 95° C. for 5 minutes. 15 to 20 μg of samples were loaded onto pre-cast 4-12% Bis-Tris midi 20W or 26W gels (Thermofisher Scientific®, Cat #WG1402BOX or WG1403BOX) and resolved at 130 V for 2 hours with NuPAGE MOPS SDS running buffer (Thermofisher Scientific® Cat #NP0001-02). Proteins were electrophoretically transferred onto a 0.45 μm nitrocellulose membrane (GE Healthcare, Amersham Protran® Supported 0.45 mm NC) at 90 V for 90 min on ice in transfer buffer (48 mM Tris base and 39 mM glycine supplemented with 20% methanol). The transferred membrane was blocked with 5% (w/v) skim milk powder dissolved in tris-buffered saline with tween (TBS-T) (50 mM Tris base, 150 mM sodium chloride (NaCl), 0.1% (v/v) Tween-20) at room temperature for 1 hour.

Inhibition data for 6 compounds are collected here from US20260001875A1, “AMINOPYRIMIDINYL DERIVATIVES FOR THE TREATMENT OF PARKINSON'S DISEASE” (UNIVERSITY OF DUNDEE, priority 2022, published 2026).

The structures appear in SMILES notation.

Turning to `CNc1nc(Nc2ccc(C(=O)N3CCN(CCOCCOCCOCCOCCOc4cccc(C(=O)c5csc(C6CCCN6C(=O)[C@@H](NC(=O)[C@H](C)NC)C6CCCCC6)n5)c4)CC3)cc2OC)ncc1Cl` (stereo partly drawn) [SD112, (S)—N—((S)-2-((S)-2-(4-(3-((14-(4-(4-((5-chloro-4-(methylamino)pyrimidin-2-yl)amino)-3-methoxybenzoyl)piperazin-1-yl)-3,6,9,12-tetraoxatetradecyl)oxy)benzoyl)thiazol-2-yl)pyrrolidin-1-yl)-1-cyclohexyl-2-oxoethyl)-2-(methylamino)propenamide], the inhibition at 0.033 µM in assay [1] (33 nM/4 h treatment) was in the range of 0 to 25%; in assay [1] (33 nM/24 h treatment), 10 to 40%; in assay [3] (33 nM/4 h treatment), 0 to 60%; in assay [3] (33 nM/24 h treatment), 0 to 70%. In addition, the inhibition at 1 µM fell in the range of 18 to 90% in assay [1] (1 μM/4 h treatment), 30 to 90% in assay [1] (1 μM/24 h treatment), 30 to 95% in assay [2] (1 μM/4 h treatment) and 30 to 100% in assay [2] (1 μM/24 h treatment).

Take `CNc1nc(Nc2ccc(C(=O)N3CCN(CCOCCOCCOc4cccc(C(=O)c5csc(C6CCCN6C(=O)[C@@H](NC(=O)[C@H](C)NC)C6CCCCC6)n5)c4)CC3)cc2OC)ncc1Cl` (stereo partly drawn) [SD113, (S)—N—((S)-2-((S)-2-(4-(3-(2-(2-(2-(4-(4-((5-chloro-4-(methylamino)pyrimidin-2-yl)amino)-3-methoxybenzoyl)piperazin-1-yl)ethoxy)ethoxy)ethoxy)benzoyl)thiazol-2-yl)pyrrolidin-1-yl)-1-cyclohexyl-2-oxoethyl)-2-(methylamino)propenamide]: the inhibition at 0.033 µM lay in the range of 0 to 25% in assay [1] (33 nM/4 h treatment), 10 to 40% in assay [1] (33 nM/24 h treatment), 0 to 60% in assay [3] (33 nM/4 h treatment) and 0 to 70% in assay [3] (33 nM/24 h treatment). The inhibition at 1 µM in assay [1] (1 μM/4 h treatment) was 18 to 90%; in assay [1] (1 μM/24 h treatment) it was 30 to 90%; in assay [2] (1 μM/4 h treatment), 30 to 95%; in assay [2] (1 μM/24 h treatment) it was 30 to 100%.

`CNc1nc(Nc2ccc(C(=O)N3CCN(CCCOc4cccc(C(=O)c5csc(C6CCCN6C(=O)[C@@H](NC(=O)[C@H](C)NC)C6CCCCC6)n5)c4)CC3)cc2OC)ncc1Cl` (stereo partly drawn) [SD114, (S)—N—((S)-2-((S)-2-(4-(3-(3-(4-(4-((5-chloro-4-(methylamino)pyrimidin-2-yl)amino)-3-methoxybenzoyl)piperazin-1-yl)propoxy)benzoyl)thiazol-2-yl)pyrrolidin-1-yl)-1-cyclohexyl-2-oxoethyl)-2-(methylamino)propenamide]: the inhibition at 0.033 µM is 0 to 25% in assay [1] (33 nM/4 h treatment), 10 to 40% in assay [1] (33 nM/24 h treatment), 0 to 60% in assay [3] (33 nM/4 h treatment) and 0 to 70% in assay [3] (33 nM/24 h treatment). For the same compound, the inhibition at 1 µM in assay [1] (1 μM/4 h treatment) lay within 18 to 90%; in assay [1] (1 μM/24 h treatment), 30 to 90%; in assay [2] (1 μM/4 h treatment) it was 30 to 95%; in assay [2] (1 μM/24 h treatment), 30 to 100%.

With `CNc1nc(Nc2ccc(C(=O)N3CCN(Cc4ccc(CSC(C)(C)[C@H](NC(=O)C5(F)CC5)C(=O)N5C[C@H](O)C[C@H]5C(=O)NCc5ccc(-c6scnc6C)cc5)cc4)CC3)cc2OC)ncc1C(F)(F)F` [XL01070B, (2S,4R)-1-((R)-2-(1-fluorocyclopropane-1-carboxamido)-3-((4-((4-(3-methoxy-4-((4-(methylamino)-5-(trifluoromethyl)pyrimidin-2-yl)amino)benzoyl)piperazin-1-yl)methyl)benzyl)thio)-3-methylbutanoyl)-4-hydroxy-N-(4-(4-methylthiazol-5-yl)benzyl)pyrrolidine-2-carboxamide], the inhibition at 0.033 µM in assay [1] (33 nM/4 h treatment) lay in the range of 0 to 40%; in assay [1] (33 nM/24 h treatment), 0 to 60%; in assay [3] (33 nM/4 h treatment), 0 to 70%; in assay [3] (33 nM/24 h treatment) it was 0 to 90%. Moreover, the inhibition at 1 µM in assay [1] (1 μM/4 h treatment) lay within 10 to 95%; in assay [1] (1 μM/24 h treatment), 30 to 100%; in assay [2] (1 μM/4 h treatment) it was 20 to 100%; in assay [2] (1 μM/24 h treatment), 10 to 100%.

Regarding `CNc1nc(Nc2ccc(C(=O)N3CCN(CCCSC(C)(C)[C@H](NC(=O)C4(F)CC4)C(=O)N4C[C@H](O)C[C@H]4C(=O)NCc4ccc(-c5scnc5C)cc4)CC3)cc2OC)ncc1C(F)(F)F` [XL01072, (2S,4R)-1-((R)-2-(1-fluorocyclopropane-1-carboxamido)-3-((3-(4-(3-methoxy-4-((4-(methylamino)-5-(trifluoromethyl)pyrimidin-2-yl)amino)benzoyl)piperazin-1-yl)propyl)thio)-3-methylbutanoyl)-4-hydroxy-N-(4-(4-methylthiazol-5-yl)benzyl)pyrrolidine-2-carboxamide], the inhibition at 0.033 µM was 0 to 40% in assay [1] (33 nM/4 h treatment), 0 to 60% in assay [1] (33 nM/24 h treatment), 0 to 70% in assay [3] (33 nM/4 h treatment) and 0 to 90% in assay [3] (33 nM/24 h treatment). Moreover, the inhibition at 1 µM is 10 to 95% in assay [1] (1 μM/4 h treatment), 30 to 100% in assay [1] (1 μM/24 h treatment), 20 to 100% in assay [2] (1 μM/4 h treatment) and 10 to 100% in assay [2] (1 μM/24 h treatment).

Take `CNc1nc(Nc2ccc(C(=O)N3CCN(CC#CCSC(C)(C)[C@H](NC(=O)C4(F)CC4)C(=O)N4C[C@H](O)C[C@H]4C(=O)NCc4ccc(-c5scnc5C)cc4)CC3)cc2OC)ncc1Cl` [XL01076, (2S,4R)-1-((R)-3-((4-(4-(4-((5-chloro-4-(methylamino)pyrimidin-2-yl)amino)-3 methoxybenzoyl)piperazin-1-yl)but-2-yn-1-yl)thio)-2-(1-fluorocyclopropane-1-carboxamido)-3-methylbutanoyl)-4-hydroxy-N-(4-(4-methylthiazol-5-yl)benzyl)pyrrolidine-2-carboxamide]: the inhibition at 0.033 µM is 0 to 40% in assay [1] (33 nM/4 h treatment), 0 to 60% in assay [1] (33 nM/24 h treatment), 0 to 70% in assay [3] (33 nM/4 h treatment) and 0 to 90% in assay [3] (33 nM/24 h treatment). Also, the inhibition at 1 µM in assay [1] (1 μM/4 h treatment) lay within 10 to 95%; in assay [1] (1 μM/24 h treatment) it was 30 to 100%; in assay [2] (1 μM/4 h treatment), 20 to 100%; in assay [2] (1 μM/24 h treatment) it was 10 to 100%.
